Experiments:
HiBit-KRAS^G12C [1] = target: T1, HiBit-KRAS^G12C (Homo sapiens, UniProt P01116, G12C); assay: HiBit degradation assay in SW1573 HiBit-KRas^G12C cells; assay type: cell-based; set-up: expressed in transfected cells; host or cells: SW1573 (clone E6), modified pcDNA3.1 vector, TK promoter; settings: 24 hours; for KRas^G12C-HiBit (SW1573; 0.1% DMSO) Dmax** / DC50: SW1573 HiBit-KRas^G12C; for DC50: read-out: KRas^G12C-HIBit (SW1573; 0.1% DMSO) DC50*; for Dmax: SW1573, SW1573 HiBit-KRas^G12C
T1 sequence (P01116 1-186 isoform P01116-2 G12C limits assumed): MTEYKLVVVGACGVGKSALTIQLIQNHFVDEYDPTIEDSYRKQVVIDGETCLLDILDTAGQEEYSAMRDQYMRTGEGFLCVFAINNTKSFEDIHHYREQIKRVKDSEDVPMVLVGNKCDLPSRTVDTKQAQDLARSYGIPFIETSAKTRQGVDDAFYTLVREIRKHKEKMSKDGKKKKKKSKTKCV
In short: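 HiBit-KRAS G12C degradation was measured after a 24 h compound exposure (titrated 10 μM–20 nM) in engineered SW1573 cells. Lytic HiBit luminescence, expressed relative to DMSO controls, yielded DC50 and Dmax from 4-parameter fits. Concentrations causing ≥50% loss in alamar blue viability were omitted as cytotoxic.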

HiBit-KRAS^G12C [2] = target: T1, HiBit-KRAS^G12C; assay: HiBit degradation assay in MiaPaCa-2 HiBit-KRas^G12C cells; assay type: cell-based; settings: 24 hours, maximum degradation; for KRas^G12C-HiBiT (MiaPaCa; 0.1% DMSO) DMax / KRas^G12C-HiBiT (MiaPaCa; 0.5% DMSO) DMax: MiaPaCa-2 HiBit-KRas^G12C cells; for Dmax: MIA PaCa-2, MiaPaCa-2 HiBit-KRas^G12C cells
Description: Reagents. SW1573 (CRL-2170) and MiaPaCa-2 (CRL-1420) cells were purchased from ATCC. Both cell lines are […] for the G12C mutation in KRAS. SW1573 cells were cultured in DMEM+F12+Glutamax (+Sodium Bicarbonate, +sodium pyruvate, Thermofisher scientific, #10565) supplemented with 10% FBS (Thermofisher scientific, #2060357) and 1% Antibiotic-Antimycotic (Thermofisher scientific, #15240096). MiaPaCa-2 cells were cultured in DMEM+Glutamax media (Thermofisher scientific, #10566) supplemented with 10% FBS (Thermofisher scientific, #2060357) and 1% Antibiotic-Antimycotic (Thermofisher scientific, #15240096). For degradation assays, 384 well plates were purchased from Corning (Corning® CellBIND® 384-well Flat Clear Bottom Black Polystyrene Microplates, Low Flange, #3770). Gambogic acid was purchased from Selleckchem (#S2448). Alamar blue was purchased from Thermofisher scientific (A50101) and used according to manufacturer instructions. The Nano-Glo® HiBit Lytic Detection System and Nano-Glo® HiBit Blotting System were purchased from Promega (#N3050 and #N2410) and used according to manufacturer instructions.
To create the MiaPaCa-2 HiBit-KRAS^G12C cell line, CRISPR-Cas9 was used to insert the HiBit tag onto the N-terminus of one or more of the four endogenous KRAS^G12C alleles. After knock-in of the tag, individual clones were isolated by single cell dilution and screened for HiBit insertion by PCR. Clones containing the HiBit tag were sequenced and one was identified that contained the desired HiBit-KRAS^G12C sequence at one allele while the remaining three KRAS^G12C alleles were unaffected. This line was used for all subsequent studies.
Either SW1573 HiBit-KRas^G12C or MiaPaCa-2 HiBit-KRas^G12C cells were plated at 9000 cells/well in a 384 well plate (Corning #3770). Exemplary heterobifunctional molecules and positive controls were diluted in the appropriate cell media and applied to the plated cells resulting in a final concentration titration of 10 μM to 20 nM in either 0.1% or 0.5% dimethyl sulfoxide (DMSO). Gambogic acid was used as a positive control for cytotoxicity and titrated from 10 μM to 78 nM. All assays were performed in triplicate. Cells were treated with compounds for 24 hours at 37° C. in an incubator containing 5% CO2. Following treatment, alamar blue was used to determine if any compounds led to a loss in cell viability after 24 hours. The 10× alamar blue reagent was added to a final concentration of 1× as recommended by the manufacturer and cells were returned to the incubator for 4 hours. Plates were then allowed to equilibrate to room temperature and fluorescence was measured using a Perkin-Elmer EnVision. After completion of the fluorescence read, the liquid from each well was removed and the cells were washed with PBS. The Nano-Glo® HiBiT detection reagent was prepared according to the manufacturer's instructions and added to each well after the PBS wash was removed. Following incubation at room temperature for 45 minutes, the luminescence was read using the ultra-sensitive luminescence aperture on the Envision instrument.
Fluorescence values from the alamar blue treatment were normalized to the DMSO only control for each compound titration. We hypothesized that compounds that led to a ≥50% loss in cell viability of the KRAS-independent SW1573 HiBit-KRas^G12C cells were likely generally cytotoxic and loss of HiBit-KRAS^G12C signal from these compounds may be due to lower cell number and not specific KRAS^G12C degradation. These points were therefore excluded from the data analysis for degradation. […]

[3] = 0.1% DMSO, read-out: KRas^G12C-HiBit (SW1573; 0.1% DMSO) Dmax**

SMILES | DC50 (HiBit-KRAS^G12C [1]; 0.1% DMSO) | Dmax (HiBit-KRAS^G12C [1]; [3]) | Dmax (HiBit-KRAS^G12C [1]; 0.5% DMSO, read-out: KRas^G12C-HiBiT (SW1573; 0.5% DMSO) Dmax**) | Dmax (HiBit-KRAS^G12C [2]; 0.1% DMSO, read-out: KRas^G12C-HiBiT (MiaPaCa; 0.1% DMSO) DMax) | Dmax (HiBit-KRAS^G12C [2]; 0.5% DMSO, read-out: KRas^G12C-HiBiT (MiaPaCa; 0.5% DMSO) DMax) | KRas^G12C-HiBit (SW1573; 0.1% DMSO) Dmax** (HiBit-KRAS^G12C [1]; 0.1% DMSO) | KRas^G12C-HiBiT (MiaPaCa; 0.1% DMSO) DMax (HiBit-KRAS^G12C [2]; 0.1% DMSO) | KRas^G12C-HiBiT (MiaPaCa; 0.5% DMSO) DMax (HiBit-KRAS^G12C [2]; 0.5% DMSO)
C=CC(=O)N1CCN(c2nc(OCCN3CCC(OCCOc4cc([C@H](C(=O)N5C[C@H](O)C[C@H]5C(=O)N[C@@H](C)c5ccc(-c6scnc6C)cc5)C(C)C)on4)CC3)nc3c(F)c(-c4cc(O)cc5ccccc45)c(Cl)cc23)C[C@@H]1CC#N (atropisomer, axis not shown) [Compound 3, (2S,4R)-1-((R)-2-(3-(2-((1-(2-(((S)-4-((S)-4-acryloyl-3-(cyanomethyl)piperazin-1-yl)-6-chloro-8-fluoro-7-(3-hydroxynaphthalen-1-yl)quinazolin-2-yl)oxy)ethyl)piperidin-4-yl)oxy)ethoxy)isoxazol-5-yl)-3-methylbutanoyl)-4-hydroxy-N-((S)-1-(4-(4-methylthiazol-5-yl)phenyl)ethyl)pyrrolidine-2-carboxamide] | < 0.1 µM |  |  |  |  | A (A ≥ 70) | A (A ≥ 70) | A (A ≥ 70)
C=CC(=O)N1CCN(c2nc(OCCN3CCC(OCCOc4cc([C@H](C(=O)N5C[C@H](O)C[C@H]5C(=O)N[C@@H](C)c5ccc(-c6scnc6C)cc5)C(C)C)on4)CC3)nc3c(F)c(-c4cc(O)cc5ccccc45)c(Cl)cc23)C[C@@H]1CC#N (atropisomer, axis not shown) [Compound 4, (2S,4R)-1-((R)-2-(3-(2-((1-(2-(((R)-4-((S)-4-acryloyl-3-(cyanomethyl)piperazin-1-yl)-6-chloro-8-fluoro-7-(3-hydroxynaphthalen-1-yl)quinazolin-2-yl)oxy)ethyl)piperidin-4-yl)oxy)ethoxy)isoxazol-5-yl)-3-methylbutanoyl)-4-hydroxy-N-((S)-1-(4-(4-methylthiazol-5-yl)phenyl)ethyl)pyrrolidine-2-carboxamide] | 0.1 to 1 µM |  |  |  |  | B (35 < B < 70) | C (C ≤ 35) | B (35 < B < 70)
C=CC(=O)N1CCN(c2nc(OCCN3CCC(COCC(=O)N[C@H](C(=O)N4C[C@H](O)C[C@H]4C(=O)N[C@@H](C)c4ccc(-c5scnc5C)cc4)C(C)(C)C)CC3)nc3c(F)c(-c4cc(O)cc5ccccc45)c(Cl)cc23)CC1 (atropisomer, axis not shown) [Compound 9, (2S,4R)-1-[(2S)-2-(2-{[1-(2-{[6-chloro-8-fluoro-7-(3-hydroxynaphthalen-1-yl)-4-[4-(prop-2-enoyl)piperazin-1-yl]quinazolin-2-yl]oxy}ethyl)piperidin-4-yl]methoxy}acetamido)-3,3-dimethylbutanoyl]-4-hydroxy-N-[(1S)-1-[4-(4-methyl-1,3-thiazol-5-yl)phenyl]ethyl]pyrrolidine-2-carboxamide] | 0.1 to 1 µM |  |  |  |  | A (A ≥ 70) | A (A ≥ 70) | A (A ≥ 70)

Now from value to compound, other results behind:

DC50 (HiBit-KRAS^G12C [1]; 0.1% DMSO) | Dmax (HiBit-KRAS^G12C [1]; [3]) | Dmax (HiBit-KRAS^G12C [1]; 0.5% DMSO, read-out: KRas^G12C-HiBiT (SW1573; 0.5% DMSO) Dmax**) | Dmax (HiBit-KRAS^G12C [2]; 0.1% DMSO, read-out: KRas^G12C-HiBiT (MiaPaCa; 0.1% DMSO) DMax) | Dmax (HiBit-KRAS^G12C [2]; 0.5% DMSO, read-out: KRas^G12C-HiBiT (MiaPaCa; 0.5% DMSO) DMax) | SMILES | KRas^G12C-HiBit (SW1573; 0.1% DMSO) Dmax** (HiBit-KRAS^G12C [1]; 0.1% DMSO) | KRas^G12C-HiBiT (MiaPaCa; 0.1% DMSO) DMax (HiBit-KRAS^G12C [2]; 0.1% DMSO) | KRas^G12C-HiBiT (MiaPaCa; 0.5% DMSO) DMax (HiBit-KRAS^G12C [2]; 0.5% DMSO)
0.1 to 1 µM | 35 to 70% | 35 to 70% | 35 to 70% | 35 to 70% | C=CC(=O)N1CCN(c2nc(O[C@H](C)CN3CCC(OCCOCC(=O)N[C@H](C(=O)N4C[C@H](O)C[C@H]4C(=O)N[C@@H](C)c4ccc(-c5scnc5C)cc4)C(C)(C)C)CC3)nc3c(F)c(-c4cc(O)cc5ccccc45)c(Cl)cc23)CC1 (atropisomer, axis not shown) [Compound 86, (2S,4R)-1-[(2S)-2-{2-[2-({1-[(2R)-2-{[6-chloro-8-fluoro-7-(3-hydroxynaphthalen-1-yl)-4-[4-(prop-2-enoyl)piperazin-1-yl]quinazolin-2-yl]oxy}propyl]piperidin-4-yl}oxy)ethoxy]acetamido}-3,3-dimethylbutanoyl]-4-hydroxy-N-[(1S)-1-[4-(4-methyl-1,3-thiazol-5-yl)phenyl]ethyl]pyrrolidine-2-carboxamide] |  |  | 
> 1 µM |  |  |  |  | C=CC(=O)N1CCN(c2nc(O[C@H](C)CN3CCC(OCCOCCOCCOCCOCCOCCOCCOCCOCC(=O)N[C@H](C(=O)N4C[C@H](O)C[C@H]4C(=O)N[C@@H](C)c4ccc(-c5scnc5C)cc4)C(C)(C)C)CC3)nc3c(F)c(-c4cc(O)cc5ccccc45)c(Cl)cc23)CC1 [Compound 84, (2S,4R)-1-[(2S)-2-[26-({1-[(2R)-2-{[6-chloro-8-fluoro-7-(3-hydroxynaphthalen-1-yl)-4-[4-(prop-2-enoyl)piperazin-1-yl]quinazolin-2-yl]oxy}propyl]piperidin-4-yl}oxy)-3,6,9,12,15,18,21,24-octaoxahexacosanamido]-3,3-dimethylbutanoyl]-4-hydroxy-N-[(1S)-1-[4-(4-methyl-1,3-thiazol-5-yl)phenyl]ethyl]pyrrolidine-2-carboxamide] |  |  | 
> 1 µM | 35 to 70% |  |  |  | C=CC(=O)N1CCN(c2nc(OC[C@@H]3C[C@@H](OCCOc4cc(-c5scnc5C)ccc4CNC(=O)[C@@H]4C[C@@H](O)CN4C(=O)[C@@H](c4cc(C)no4)C(C)C)CN3C)nc3c2CCN(c2cccc4ccccc24)C3)C[C@@H]1CC#N [Compound 87, (2S,4R)-N-{[2-(2-{[(3R,5S)-5-[({4-[(3S)-3-(cyanomethyl)-4-(prop-2-enoyl)piperazin-1-yl]-7-(naphthalen-1-yl)-5H,6H,7H,8H-pyrido[3,4-d]pyrimidin-2-yl}oxy)methyl]-1-methylpyrrolidin-3-yl]oxy}ethoxy)-4-(4-methyl-1,3-thiazol-5-yl)phenyl]methyl}-4-hydroxy-1-[(2R)-3-methyl-2-(3-methyl-1,2-oxazol-5-yl)butanoyl]pyrrolidine-2-carboxamide] |  |  | 
> 1 µM |  |  |  |  | C=CC(=O)N1CCN(c2nc(O[C@H](C)CN3CCC(OCCOCCOCCOCCOCCOCCOCC(=O)N[C@H](C(=O)N4C[C@H](O)C[C@H]4C(=O)N[C@@H](C)c4ccc(-c5scnc5C)cc4)C(C)(C)C)CC3)nc3c(F)c(-c4cc(O)cc5ccccc45)c(Cl)cc23)CC1 [Compound 88, (2S,4R)-1-[(2S)-2-[20-({1-[(2R)-2-{[6-chloro-8-fluoro-7-(3-hydroxynaphthalen-1-yl)-4-[4-(prop-2-enoyl)piperazin-1-yl]quinazolin-2-yl]oxy}propyl]piperidin-4-yl}oxy)-3,6,9,12,15,18-hexaoxaicosanamido]-3,3-dimethylbutanoyl]-4-hydroxy-N-[(1S)-1-[4-(4-methyl-1,3-thiazol-5-yl)phenyl]ethyl]pyrrolidine-2-carboxamide] |  |  | 
